Source: patent US20080026996A1, “Selective Vpac2 Receptor Reptide Agonists” (ELI LILLY AND COMPANY, priority 2004, published 2008)
Where two headings read alike, the source gives them in different places. Where a SMILES comes first, the peptide text is derived from it. Where no end group is shown, it is not given here. [ ]: non-standard residue; d: D form. The star is where a group is joined. Hexanoyl = CCCCCC(=O)*; Aib = CC(C)(N)C(=O)O

Legend:
[1] = target: T1, rat VPAC2 receptor (Rattus norvegicus, UniProt P35000); experiment: Competition binding on recombinant rat VPAC2 receptor expressed in CHO cells, 125I-RO 25-1553 tracer; design: expressed in transfected cells; host or cells: CHO cells, crude membranes; conditions: for VPAC1/VPAC2 ratio between the IC50 values (index of selectivity): rat receptors, binding
T1 sequence (P35000 23-437): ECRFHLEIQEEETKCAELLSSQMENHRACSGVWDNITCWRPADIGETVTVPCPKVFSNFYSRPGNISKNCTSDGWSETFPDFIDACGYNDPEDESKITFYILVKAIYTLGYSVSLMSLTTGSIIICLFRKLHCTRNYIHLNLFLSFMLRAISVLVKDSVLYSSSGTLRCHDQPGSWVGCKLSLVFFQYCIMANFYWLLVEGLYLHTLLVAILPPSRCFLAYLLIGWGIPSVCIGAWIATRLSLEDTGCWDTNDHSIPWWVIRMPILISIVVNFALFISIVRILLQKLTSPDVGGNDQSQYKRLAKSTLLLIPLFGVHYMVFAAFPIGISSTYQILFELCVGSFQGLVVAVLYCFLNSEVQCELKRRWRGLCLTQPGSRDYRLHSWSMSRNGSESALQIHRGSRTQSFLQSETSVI
Protocol: The peptide samples are stored frozen and thawed prior to the assay. […] All peptide sample and reference compound dilutions are performed in PBS. Peptides solutions are kept in the cold room for four days. Stock solutions are stored at −80° C. New dilution curves are prepared every week.
All studies are performed on crude membranes prepared from three different cell cultures expressing the different recombinant receptors, using methodology that is known in the literature. Duplicate values are obtained for each assay.
The selectivity of the VPAC2 receptor peptide agonists of the present invention are tested on the rat VPAC1 and VPAC2 receptors recombinantly expressed in CHO cells.
Each assay is done in duplicate and performed on two different membrane preparations.

[2] = in vivo; conditions: Wistar, rat, iv
Protocol: (§1) An IVGTT with glucose is given immediately after T=0 to 6 animals per condition. Samples are taken at 0, 2, 4, 6, and 10 minutes after injection.
(§2) For cell handling, Plate 50,000 cells/well and keep in culture over night. Wash cell twice in PBS and add 50 μl/well stimulation medium consisting of PBS+1.2 MgCl2, 1.3 CaCl2, 2 glucose and 0.5 IBMX. Incubate 15 minutes and add 50 μl/well of the plasma samples (see layout below). Incubate 30 minutes, remove the supernatant and proceed as normal with the DiscoveRx assay. Prepare plates in duplicate. Protease and peptidase inhibitor are present in all plasma samples.

[3] = system: conscious Wistar rats; experiment: Oral glucose tolerance test (OGTT); type: in vivo, rat; conditions: for Effects on glucose, AUC(0-135 min) / Effects on insulin, AUC(0-75 min): OGTT (15 min)
Protocol: Oral Glucose Tolerance Test (OGTT):
The effect of a selective VPAC2 receptor peptide agonist (P31) on plasma insulin and glucose is evaluated during OGTT in conscious Wistar rats. The maximal dose of agonist is 10 μg/kg. Since the peptide is given intravenously and has a very short half-life, a delay between glucose and compound administrations is applied.

[4] = target: T2, human VPAC2 (Homo sapiens, UniProt P41587); experiment: DiscoveRx cAMP in vitro potency, CHO-S cell line stably expressing human VPAC2 receptor; type: cell-based; conditions: cAMP generation; mean of two independent runs
T2 construct: expressed in transfected cells
T2 sequence (P41587 24-438): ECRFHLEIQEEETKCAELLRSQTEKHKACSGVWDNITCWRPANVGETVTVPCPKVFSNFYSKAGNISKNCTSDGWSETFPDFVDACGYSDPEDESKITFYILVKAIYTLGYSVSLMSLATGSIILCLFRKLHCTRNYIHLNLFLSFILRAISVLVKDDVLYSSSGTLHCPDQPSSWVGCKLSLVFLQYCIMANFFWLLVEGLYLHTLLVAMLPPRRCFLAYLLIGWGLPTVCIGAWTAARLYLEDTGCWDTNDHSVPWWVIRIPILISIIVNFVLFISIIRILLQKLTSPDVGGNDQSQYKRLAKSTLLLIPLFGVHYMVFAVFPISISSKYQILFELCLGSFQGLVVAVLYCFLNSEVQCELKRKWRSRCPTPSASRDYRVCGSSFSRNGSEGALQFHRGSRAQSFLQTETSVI
Protocol: Also, the cells are washed twice. The cells are incubated in assay buffer plus IBMX for 15 minutes at room temperature. […] The stimuli are present for 30 minutes. Then, the assay buffer is gently removed. […] At day 3, the assay described above for the VPAC2 receptor cell line is performed.

[5] = system: Normal Wistar rats; experiment: Delayed IVGTT; type: in vivo, rat; conditions: 10 μg/kg iv, glucose 30 minutes later
Protocol: Delayed IVGTT: Perform IVGTT as described above, making the following changes. After the initial blood sample, compound or vehicle is injected i.v. Glucose is injected i.v. 30 minutes later in a separate injection. Blood samples are taken immediately prior to administration of the compound, at 15 minutes after administration of the compound, and at 30 minutes after administration of the compound. The sample at 30 minutes after administration of the compound is taken immediately prior to glucose administration. Blood samples are drawn 2, 4, 6, 10, and 30 minutes after giving glucose (i.e. 32, 34, 36, 40 and 60 minutes after compound administration). The blood samples at 15 and 60 minutes are not essential to the study and not always taken. Aprotinin is added to the blood sample (250 kIU/ml blood). The serum is then analyzed for glucose and insulin using standard methodologies.
The assay uses a formulated and calibrated peptide stock in PBS. Normally, this stock is a prediluted 100 μM stock. However, a more concentrated stock with approximately 1 mg agonist per mL is used. The specific concentration is always known.

[6] = target: T3, rat VPAC1 receptor (Rattus norvegicus, UniProt P30083); experiment: DiscoveRx in vitro potency, CHO-PO cells transiently transfected with rat VPAC 1 receptor DNA; type: cell-based; design: expressed in transfected cells; host or cells: CHO-PO, transient
T3 sequence (P30083 31-459): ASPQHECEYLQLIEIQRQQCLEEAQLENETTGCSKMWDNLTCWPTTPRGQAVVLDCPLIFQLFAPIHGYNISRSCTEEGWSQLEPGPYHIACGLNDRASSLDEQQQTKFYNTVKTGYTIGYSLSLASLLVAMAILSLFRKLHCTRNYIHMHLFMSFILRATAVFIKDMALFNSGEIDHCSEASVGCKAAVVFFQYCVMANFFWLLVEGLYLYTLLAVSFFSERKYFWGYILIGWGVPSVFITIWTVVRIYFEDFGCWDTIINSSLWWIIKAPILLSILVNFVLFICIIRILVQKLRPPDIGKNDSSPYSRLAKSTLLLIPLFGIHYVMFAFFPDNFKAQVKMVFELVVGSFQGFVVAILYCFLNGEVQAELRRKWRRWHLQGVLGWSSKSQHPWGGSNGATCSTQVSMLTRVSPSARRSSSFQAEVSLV
Protocol: Also, the cells are washed twice. […] The stimuli are present for 30 minutes. Then, the assay buffer is gently removed.

[7] = Pharmacokinetic assay: active peptide levels in rat plasma after IV injection
Protocol: as §1, §2

[8] = IC50 of tracer inhibition, 125I-RO 25-1553, with standard error, read-out: RAT VPAC2 IC50 (log M) (converted)
[9] = Wistar, rat, plasma, iv, 10 ug/kg

## CCCCCC(=O)N[C@@H](Cc1c[nH]cn1)C(=O)N[C@@H](CO)C(=O)N[C@@H](CC(=O)O)C(=O)N[C@@H](C)C(=O)N[C@H](C(=O)N[C@@H](Cc1ccccc1)C(=O)N[C@H](C(=O)N[C@@H](CC(=O)O)C(=O)N[C@@H](CC(N)=O)C(=O)N[C@@H](Cc1ccc(O)cc1)C(=O)N[C@H](C(=O)N[C@@H](CCCNC(=N)N)C(=O)N[C@@H](CC(C)C)C(=O)N[C@@H](CCCNC(=N)N)C(=O)NC(C)(C)C(=O)N[C@@H](CCC(N)=O)C(=O)N[C@@H](CC(C)C)C(=O)N[C@@H](C)C(=O)N[C@@H](C)C(=O)NC(C)(C)C(=O)N[C@@H](CCCCN)C(=O)N[C@@H](Cc1ccc(O)cc1)C(=O)N[C@@H](CC(C)C)C(=O)N[C@@H](CCC(N)=O)C(=O)N[C@@H](CO)C(=O)N[C@H](C(=O)N[C@@H](CCCCN)C(=O)N[C@@H](CC(N)=O)C(=O)N[C@@H](CCCCN)C(=O)NCC(=O)NCC(=O)N1CCC[C@H]1C(=O)N[C@@H](CO)C(=O)N[C@@H](CO)C(=O)NCC(=O)N[C@@H](C)C(=O)N1CCC[C@H]1C(=O)N1CCC[C@H]1C(=O)N1CCC[C@H]1C(=O)N[C@@H](CO)C(=O)O)[C@@H](C)CC)[C@@H](C)O)[C@@H](C)O)C(C)C [Agonist P292] (Hexanoyl-HSDAVFTDNYTRLR[Aib]QLAA[Aib]KYLQSIKNKGGPSSGAPPPS-OH; C-terminus assumed)
[1]; [8]
  IC50: 0.759 nM
[1]
  VPAC1/VPAC2 ratio between the IC50 values (index of selectivity): 269
[2]; 0.5 ug/kg
  AUC(0-t): 0.0167 nM·h
  Cmax: 0.12 nM
  half-life: 15 min
[2]; 10 ug/kg
  AUC(0-t): 0.688 nM·h
  Cmax: 5.37 nM
  half-life: 5.5 min

## Hexanoyl-HSDAVFTDNYTRLRKQVAAKKYLQSIKNKRYGGPSSGAPPPS [Agonist P31]
[1]; [8]
  IC50: 0.385 nM
[1]
  VPAC1/VPAC2 ratio between the IC50 values (index of selectivity): 546
[3]; #1, 10 μg/kg iv
  Effects on glucose, AUC(0-135 min): −22% AUC(0-135 min)
  Effects on insulin, AUC(0-75 min): +71% AUC(0-75 min)
[3]; #2, 0.5 μg/kg iv
  Effects on glucose, AUC(0-135 min): −5% AUC(0-135 min)
  Effects on insulin, AUC(0-75 min): +16% AUC(0-75 min)
[3]; #2, 10 μg/kg iv
  Effects on glucose, AUC(0-135 min): −2% AUC(0-135 min)
  Effects on insulin, AUC(0-75 min): +17% AUC(0-75 min)
[3]; OGTT (30 min), 10 μg/kg iv
  Effects on insulin, AUC(0-90 min): +85% AUC(0-90 min)
[3]; OGTT (30 min), 10 μg/kg iv, (NS)
  Effects on glucose, AUC(0-150 min): −1% AUC(0-150 min)
[4]
  EC50: 0.11 nM
[5]
  Effects on glucose: None
  Effects on insulin, AUC(0-10 min): +91% AUC(0-10 min)
[2]; 10 ug/kg
  AUC(0-t): 0.308 nM·h
  Cmax: 4.37 nM
  half-life: 12 min
[6]
  EC50: 0.44 nM

## H-MHSDAVFTDNYTRLRKQVAAKKYLQSIKNKRYGGPSSGAPPPS [Agonist P104]
[1]
  IC50: 1.8 nM
  VPAC1/VPAC2 ratio between the IC50 values (index of selectivity): 977
[7]; [9]
  AUC(0-t): 0.355 nM·h
  Cmax: 3.19 nM
  half-life: 2.35 min
[7]; rat plasma, 10 μg/kg i.v.
  Exposure (10 μg/kg); clearance in μg/(min * nM * kg): 0.87 µg/min/nM/kg
  Exposure (10 μg/kg, Vdist in μg/(nM * kg)): 2.64 µg/nM/kg

## Hexanoyl-HSDAVFTDNYTRLR[Aib]QVAAK[Aib]YLQSIKNKRYGGPSSGAPPPS [Agonist P264]
[2]; 10 ug/kg
  AUC(0-t): 0.06 nM·h
  Cmax: 0.96 nM
  half-life: 1.3 min

## Hexanoyl-HSDAVFTDNYTRLLAKLALQKYLQSIKNKRYGGPSSGAPPPS [Agonist P119]
[1]; [8]
  IC50: 0.618 nM
[1]
  VPAC1/VPAC2 ratio between the IC50 values (index of selectivity): 47
[4]
  EC50: 0.34 nM
[6]
  EC50: 0.07 nM

## Hexanoyl-HSDAVFTDNYTRLR[Aib]QVAA[Aib]KYLQSIKNKRYGGPSSGAPPPS [Agonist P261]
[1]; [8]
  IC50: 0.355 nM
[1]
  VPAC1/VPAC2 ratio between the IC50 values (index of selectivity): 363
[2]; 10 ug/kg
  AUC(0-t): 0.898 nM·h
  Cmax: 12.1 nM
  half-life: 3.2 min
